In the assay the test system is Plutella xylostella. The assay can be described thus: Antifeedant activity against second-instar larval stage of Plutella xylostella (diamondback moth) in cabbage leaf disks assessed as consumed leaf area treated for 10 secs before larval infestation measured within 48 hr by non-choice leaf disc method. The class given is functional.
Take `CC1(C)CC[C@]2(C(=O)O[C@@H]3O[C@H](CO)[C@@H](O)[C@H](O)[C@H]3O)CC[C@]3(C)C(=CC[C@@H]4[C@@]5(C)CC[C@H](O[C@@H]6O[C@H](CO)[C@@H](O)[C@H](O[C@@H]7O[C@H](CO)[C@@H](O)[C@H](O)[C@H]7O)[C@H]6O[C@@H]6O[C@H](CO)[C@@H](O)[C@H](O)[C@H]6O)C(C)(C)[C@@H]5CC[C@]43C)[C@@H]2C1` [ARALIA-SAPONIN V]: the AFC50 worked out at 5467.82 µg/mL.

Regarding `CC1(C)CC[C@]2(C(=O)O[C@@H]3O[C@H](CO)[C@@H](O)[C@H](O)[C@H]3O)CC[C@]3(C)C(=CC[C@@H]4[C@@]5(C)CC[C@H](O[C@@H]6O[C@H](CO)[C@@H](O)[C@H](O[C@@H]7O[C@H](CO)[C@@H](O)[C@H](O)[C@H]7O)[C@H]6O[C@@H]6OC[C@@H](O)[C@H](O)[C@H]6O)C(C)(C)[C@@H]5CC[C@]43C)[C@@H]2C1` [ARALIASAPONIN IV], the AFC50 turned out to be 335.54 µg/mL.

`CC1(C)CC[C@]2(C(=O)O)CC[C@]3(C)C(=CC[C@@H]4[C@@]5(C)CC[C@H](O[C@@H]6O[C@H](CO)[C@@H](O)[C@H](O[C@@H]7O[C@H](CO)[C@@H](O)[C@H](O)[C@H]7O)[C@H]6O[C@@H]6OC[C@@H](O)[C@H](O)[C@H]6O)C(C)(C)[C@@H]5CC[C@]43C)[C@@H]2[C@@H]1O` [CATUNAROSIDE A]: the AFC50 amounted to 243.23 µg/mL.

Consider `C[C@@H]1O[C@@H](O[C@H]2[C@H](O[C@H]3CC[C@]4(C)[C@H]5CC=C6[C@@H]7CC(C)(C)CC[C@]7(C(=O)O)CC[C@@]6(C)[C@]5(C)CC[C@H]4C3(C)C)O[C@H](CO)[C@@H](O)[C@@H]2O[C@@H]2O[C@H](CO)[C@@H](O)[C@H](O)[C@H]2O)[C@H](O)[C@H](O)[C@H]1O` [CATUNAROSIDE B], for which the AFC50 was 369.63 µg/mL.

In the case of `C[C@@H]1O[C@@H](O[C@H]2[C@H](O[C@H]3CC[C@]4(C)[C@H]5CC=C6[C@@H]7[C@H](O)C(C)(C)CC[C@]7(C(=O)O[C@@H]7O[C@H](CO)[C@@H](O)[C@H](O)[C@H]7O)CC[C@@]6(C)[C@]5(C)CC[C@H]4C3(C)C)O[C@H](CO)[C@@H](O)[C@@H]2O[C@@H]2O[C@H](CO)[C@@H](O)[C@H](O)[C@H]2O)[C@H](O)[C@H](O)[C@H]1O` [CATUNAROSIDE C], the AFC50 turned out to be 946.13 µg/mL.

With `CC1(C)CC[C@]2(C(=O)O[C@@H]3O[C@H](CO)[C@@H](O)[C@H](O)[C@H]3O)CC[C@]3(C)C(=CC[C@@H]4[C@@]5(C)CC[C@H](O[C@@H]6O[C@H](CO)[C@@H](O)[C@H](O[C@@H]7O[C@H](CO)[C@@H](O)[C@H](O)[C@H]7O)[C@H]6O[C@@H]6OC[C@@H](O)[C@H](O)[C@H]6O)C(C)(C)[C@@H]5CC[C@]43C)[C@@H]2[C@@H]1O` [CATUNAROSIDE], the AFC50 worked out at 608.42 µg/mL.

Regarding `CC1(C)CC[C@]2(C(=O)O)CC[C@]3(C)C(=CC[C@@H]4[C@@]5(C)CC[C@H](O[C@@H]6O[C@H](CO)[C@@H](O)[C@H](O[C@@H]7O[C@H](CO)[C@@H](O)[C@H](O)[C@H]7O)[C@H]6O[C@@H]6OC[C@@H](O)[C@H](O)[C@H]6O)C(C)(C)[C@@H]5CC[C@]43C)[C@@H]2C1` [SWARTZIATRIOSIDE], the AFC50 was found to be 106.73 µg/mL.

Values taken from ChEMBL document CHEMBL3044781, “Triterpenoid saponins with antifeedant activities from stem bark of Catunaregam spinosa (Rubiaceae) against Plutella xylostella (Plutellidae)” (2011).
